This passage reports AC50, IC50 and EC50 results from ChEMBL document CHEMBL1201862, “PubChem BioAssay data set” (2004).

Assay [1] addresses Heat shock protein HSP 90-alpha (Homo sapiens, UniProt P07900). The format is functional, organism-based.
Another assay concerns the target Phospholipase A2 (Homo sapiens, UniProt P04054). Type of assay: functional.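 Note: confirmatory dose-response counterscreen on phospholipase A2, testing hits that came from an ultra-high-throughput screen for ATG4B inhibitors.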
The target of the next assay is Genome polyprotein (dengue virus type 2, UniProt P29990). The experiment in a line: flavivirus cap methylation enzyme inhibition – biochemical, confirmation dose response, primary screen (AID 588689). The format is functional.
The target of assay [2] is Peroxisome proliferator-activated receptor gamma/Nuclear receptor coactivator 1 (Homo sapiens, UniProt P37231). The experiment in a line: TR-FRET dose response biochemical High Throughput Screening assay for agonists of the steroid receptor coactivator 1 (SRC-1) recruitment by the peroxisome proliferator-activated receptor gamma (PPAR gamma): non-selective agonists. [Related pubchem assays (depositor defined):AID1300, AID1808, AID504735, AID631]. Type of assay: protein assay.

Assay [3] addresses Peroxisome proliferator-activated receptor gamma/Nuclear receptor coactivator 3 (Homo sapiens, UniProt P37231). The experiment in a line: TR-FRET dose response biochemical High Throughput Screening assay for agonists of the steroid receptor coactivator 3 (SRC-3) recruitment by the peroxisome proliferator-activated receptor gamma (PPAR gamma): non-selective agonists. [Related pubchem assays: 1301 (Confirmation screen.), 1048 (Primary screen.)]. The format is functional.

Assay [4] concerns the target Peroxisome proliferator-activated receptor gamma/Nuclear receptor coactivator 2 (Homo sapiens, UniProt P37231). Nature of the assay: TR-FRET dose response biochemical High Throughput Screening assay for agonists of the steroid receptor coactivator 2 (SRC-2) recruitment by the peroxisome proliferator-activated receptor gamma (PPAR gamma): non-selective agonists. [Related pubchem assays: 1297, 1032 ]. Type of assay: functional.

Assay [5] in a line: HEK-293T cell viability reduction – luminescence, B-cell screen hits, cytotoxicity control for BCR NF-kB inhibitor project, dose response (AID 489021).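 Note: HEK-293T cells carrying an NF-kB luciferase reporter; cells exposed to compound for about 14 hours before viability readout.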 Type of assay: functional, cell-based.
For assay [6], the target named is DNA dC->dU-editing enzyme APOBEC-3A (Homo sapiens, UniProt P31941). The experiment in a line: Dose Response confirmation of small molecule APOBEC3A DNA Deaminase Inhibitors via a fluorescence-based single-stranded DNA deaminase assay. [Related pubchem assays (depositor defined):AID493011, AID493024]. The format is functional.
The target in assay [7] is DNA dC->dU-editing enzyme APOBEC-3G (Homo sapiens, UniProt Q9HC16). The format is functional.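 Note: Dose-response counterscreen measuring inhibition of APOBEC3G DNA deaminase activity, run while confirming APOBEC3A inhibitors.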
Assay [8] has as its target T1, Replicative DNA helicase DnaB (Mycobacterium tuberculosis, UniProt P9WMR3).
T1 sequence (P9WMR3 whole entry): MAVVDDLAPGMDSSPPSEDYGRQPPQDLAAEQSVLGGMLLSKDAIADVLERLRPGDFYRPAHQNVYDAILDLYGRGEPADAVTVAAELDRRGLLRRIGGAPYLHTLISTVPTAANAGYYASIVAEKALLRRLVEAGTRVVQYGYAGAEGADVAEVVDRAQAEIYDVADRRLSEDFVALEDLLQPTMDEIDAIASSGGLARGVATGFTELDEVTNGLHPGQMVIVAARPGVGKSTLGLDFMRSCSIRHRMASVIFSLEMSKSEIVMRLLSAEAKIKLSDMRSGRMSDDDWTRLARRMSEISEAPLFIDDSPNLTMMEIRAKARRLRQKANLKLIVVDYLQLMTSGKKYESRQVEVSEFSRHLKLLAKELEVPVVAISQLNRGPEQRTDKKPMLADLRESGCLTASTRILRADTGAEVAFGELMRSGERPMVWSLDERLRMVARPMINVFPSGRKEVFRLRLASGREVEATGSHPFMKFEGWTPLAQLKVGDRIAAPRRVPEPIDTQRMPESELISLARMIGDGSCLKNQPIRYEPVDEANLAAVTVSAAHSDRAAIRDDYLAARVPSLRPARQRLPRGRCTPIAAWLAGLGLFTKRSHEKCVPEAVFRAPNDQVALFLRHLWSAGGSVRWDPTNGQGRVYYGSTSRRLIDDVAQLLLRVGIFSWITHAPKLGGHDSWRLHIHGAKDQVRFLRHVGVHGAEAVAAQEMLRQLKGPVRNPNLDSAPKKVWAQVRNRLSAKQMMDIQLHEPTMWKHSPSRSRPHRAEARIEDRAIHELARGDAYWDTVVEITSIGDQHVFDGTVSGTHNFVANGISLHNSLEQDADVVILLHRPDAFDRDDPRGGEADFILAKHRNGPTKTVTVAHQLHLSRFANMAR
The experiment in a line: DnaB intein splicing inhibitors, dose response, biochemical, cell-free fluorescence (AID 449749). Type of assay: functional.

The target of the next assay is T2, Protein RecA (Mycobacterium tuberculosis, UniProt P9WHJ3).
T2 sequence (P9WHJ3 whole entry): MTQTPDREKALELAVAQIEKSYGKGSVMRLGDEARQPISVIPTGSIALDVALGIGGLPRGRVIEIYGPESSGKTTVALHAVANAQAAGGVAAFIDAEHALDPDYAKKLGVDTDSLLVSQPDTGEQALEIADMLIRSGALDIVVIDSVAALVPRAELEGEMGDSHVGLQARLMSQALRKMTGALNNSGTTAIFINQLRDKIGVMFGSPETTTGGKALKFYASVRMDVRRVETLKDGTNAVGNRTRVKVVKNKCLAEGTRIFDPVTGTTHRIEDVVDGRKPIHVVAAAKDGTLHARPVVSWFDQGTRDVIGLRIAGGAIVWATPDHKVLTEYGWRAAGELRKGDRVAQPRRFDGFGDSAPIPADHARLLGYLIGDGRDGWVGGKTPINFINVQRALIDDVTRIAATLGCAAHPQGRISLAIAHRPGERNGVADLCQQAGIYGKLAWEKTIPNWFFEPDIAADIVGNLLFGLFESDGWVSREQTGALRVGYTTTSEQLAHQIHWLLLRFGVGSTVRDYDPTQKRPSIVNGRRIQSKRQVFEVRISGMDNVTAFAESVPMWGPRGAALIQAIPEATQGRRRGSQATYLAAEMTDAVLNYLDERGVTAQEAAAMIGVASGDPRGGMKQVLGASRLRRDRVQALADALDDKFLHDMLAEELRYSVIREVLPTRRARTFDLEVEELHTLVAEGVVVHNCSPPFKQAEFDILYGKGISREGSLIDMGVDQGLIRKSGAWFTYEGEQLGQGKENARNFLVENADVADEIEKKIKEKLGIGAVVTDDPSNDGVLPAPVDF
The experiment in a line: Fluorescence Cell-Free Homogeneous Dose Retest to Identify Inhibitors of RecA-Intein Splicing Activity. [Related pubchem assays (depositor defined):AID2097, AID2223, AID489010, AID492950]. Type of assay: functional.

Assay [9] deals with T3, RNA-binding protein pos-1 (Caenorhabditis elegans, UniProt G5EF15).
T3 sequence (G5EF15 whole entry): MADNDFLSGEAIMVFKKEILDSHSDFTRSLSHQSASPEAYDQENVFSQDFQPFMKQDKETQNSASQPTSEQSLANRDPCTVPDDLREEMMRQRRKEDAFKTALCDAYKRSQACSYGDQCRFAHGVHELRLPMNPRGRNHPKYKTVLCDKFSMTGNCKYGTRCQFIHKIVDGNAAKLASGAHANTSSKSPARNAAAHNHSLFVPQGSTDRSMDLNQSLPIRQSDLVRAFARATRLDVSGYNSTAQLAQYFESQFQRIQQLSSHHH
Nature of the assay: disruptors of C. elegans POS-1 RNA interaction – biochemical, fluorescence polarization, dose response (AID 1964).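 Note: purified POS-1 fused to maltose binding protein made in E. coli; potency of compounds blocking POS-1 binding to fluorescent RNA.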

The target in assay [10] is T4, Zinc finger protein mex-5 (Caenorhabditis elegans, UniProt Q9XUB2).
T4 sequence (Q9XUB2 whole entry): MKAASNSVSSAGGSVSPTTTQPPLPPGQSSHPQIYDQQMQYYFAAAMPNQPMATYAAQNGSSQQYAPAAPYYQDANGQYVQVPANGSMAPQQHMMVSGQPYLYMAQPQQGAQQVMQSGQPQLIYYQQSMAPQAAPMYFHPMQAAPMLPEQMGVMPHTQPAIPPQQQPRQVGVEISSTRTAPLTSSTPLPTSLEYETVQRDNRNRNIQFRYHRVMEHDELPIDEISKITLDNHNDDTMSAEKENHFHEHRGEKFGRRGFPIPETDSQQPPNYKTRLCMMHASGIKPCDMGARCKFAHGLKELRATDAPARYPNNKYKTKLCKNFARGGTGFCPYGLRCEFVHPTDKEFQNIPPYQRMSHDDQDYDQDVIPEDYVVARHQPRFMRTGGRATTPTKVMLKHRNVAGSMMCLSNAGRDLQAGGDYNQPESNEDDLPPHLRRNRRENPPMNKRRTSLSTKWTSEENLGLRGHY
Nature of the assay: potency of MEX-5 RNA-binding blockers – biochemical, C. elegans, fluorescence polarization, dose response (AID 1960).

Assay [11] has as its target Eukaryotic translation initiation factor 4E (Mus musculus, UniProt P63073). Nature of the assay: blockers of eIF4G binding by eIF4E – biochemical, TR-FRET, dose response (AID 855).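 Note: potency for disrupting eIF4E binding to eIF4GI seen as loss of FRET.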 Type of assay: functional.
Assay [12] can be described thus: HEK-293T viability loss after treatment – luminescence, T-cell screen hits, cytotoxicity control for TCR NF-kB inhibitor project, dose response (AID 489026).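 Note: cells exposed to compound about 14 hours before the viability readout.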 Type of assay: functional, cell-based.
Assay [13] deals with T5, Rac GTPase-activating protein 1 (Homo sapiens, UniProt Q9H0H5).
T5 sequence (Q9H0H5 whole entry): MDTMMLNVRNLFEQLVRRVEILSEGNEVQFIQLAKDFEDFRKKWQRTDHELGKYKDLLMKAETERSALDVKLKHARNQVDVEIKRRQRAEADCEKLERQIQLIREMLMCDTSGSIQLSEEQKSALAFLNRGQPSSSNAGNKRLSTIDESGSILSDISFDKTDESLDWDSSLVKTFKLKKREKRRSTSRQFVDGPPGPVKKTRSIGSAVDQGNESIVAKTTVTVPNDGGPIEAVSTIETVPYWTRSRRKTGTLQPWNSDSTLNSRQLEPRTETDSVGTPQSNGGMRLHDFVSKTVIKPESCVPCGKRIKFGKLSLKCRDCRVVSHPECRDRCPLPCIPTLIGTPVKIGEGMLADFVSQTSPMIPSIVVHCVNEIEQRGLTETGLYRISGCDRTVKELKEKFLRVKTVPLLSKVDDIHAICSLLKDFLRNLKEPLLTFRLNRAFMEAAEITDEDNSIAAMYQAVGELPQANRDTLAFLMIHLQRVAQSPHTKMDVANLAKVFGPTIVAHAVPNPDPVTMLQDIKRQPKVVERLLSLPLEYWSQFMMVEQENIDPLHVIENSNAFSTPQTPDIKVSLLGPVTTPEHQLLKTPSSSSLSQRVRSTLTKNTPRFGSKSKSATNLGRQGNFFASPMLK
The experiment in a line: blockers of MgcRacGAP-driven Rac1 GTP hydrolysis – biochemical, ADP Hunter fluorescence, primary and confirmatory, confirmation (AID 624330). The format is functional.

Active and inactive are the calls of the source.

Sequence of DNA dC->dU-editing enzyme APOBEC-3G (Q9HC16 whole entry): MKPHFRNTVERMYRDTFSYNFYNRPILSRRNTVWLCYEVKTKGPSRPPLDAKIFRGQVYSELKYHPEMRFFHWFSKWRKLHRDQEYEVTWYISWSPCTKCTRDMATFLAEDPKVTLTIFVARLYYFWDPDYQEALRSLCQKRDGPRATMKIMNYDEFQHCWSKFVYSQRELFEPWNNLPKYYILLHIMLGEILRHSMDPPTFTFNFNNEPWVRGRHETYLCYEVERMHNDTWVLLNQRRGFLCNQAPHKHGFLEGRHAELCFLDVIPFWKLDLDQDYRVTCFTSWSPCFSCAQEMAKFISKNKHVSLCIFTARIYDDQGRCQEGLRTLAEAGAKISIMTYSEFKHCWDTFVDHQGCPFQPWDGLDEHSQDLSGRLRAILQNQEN
Sequence of DNA dC->dU-editing enzyme APOBEC-3A (P31941 whole entry): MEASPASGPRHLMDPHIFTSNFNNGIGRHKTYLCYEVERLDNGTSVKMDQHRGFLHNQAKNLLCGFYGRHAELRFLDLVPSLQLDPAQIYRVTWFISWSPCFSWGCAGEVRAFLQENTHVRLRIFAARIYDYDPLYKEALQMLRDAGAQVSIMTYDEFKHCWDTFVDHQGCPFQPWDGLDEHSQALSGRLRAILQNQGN
Sequence of Genome polyprotein (P29990 2492-3391 limits assumed): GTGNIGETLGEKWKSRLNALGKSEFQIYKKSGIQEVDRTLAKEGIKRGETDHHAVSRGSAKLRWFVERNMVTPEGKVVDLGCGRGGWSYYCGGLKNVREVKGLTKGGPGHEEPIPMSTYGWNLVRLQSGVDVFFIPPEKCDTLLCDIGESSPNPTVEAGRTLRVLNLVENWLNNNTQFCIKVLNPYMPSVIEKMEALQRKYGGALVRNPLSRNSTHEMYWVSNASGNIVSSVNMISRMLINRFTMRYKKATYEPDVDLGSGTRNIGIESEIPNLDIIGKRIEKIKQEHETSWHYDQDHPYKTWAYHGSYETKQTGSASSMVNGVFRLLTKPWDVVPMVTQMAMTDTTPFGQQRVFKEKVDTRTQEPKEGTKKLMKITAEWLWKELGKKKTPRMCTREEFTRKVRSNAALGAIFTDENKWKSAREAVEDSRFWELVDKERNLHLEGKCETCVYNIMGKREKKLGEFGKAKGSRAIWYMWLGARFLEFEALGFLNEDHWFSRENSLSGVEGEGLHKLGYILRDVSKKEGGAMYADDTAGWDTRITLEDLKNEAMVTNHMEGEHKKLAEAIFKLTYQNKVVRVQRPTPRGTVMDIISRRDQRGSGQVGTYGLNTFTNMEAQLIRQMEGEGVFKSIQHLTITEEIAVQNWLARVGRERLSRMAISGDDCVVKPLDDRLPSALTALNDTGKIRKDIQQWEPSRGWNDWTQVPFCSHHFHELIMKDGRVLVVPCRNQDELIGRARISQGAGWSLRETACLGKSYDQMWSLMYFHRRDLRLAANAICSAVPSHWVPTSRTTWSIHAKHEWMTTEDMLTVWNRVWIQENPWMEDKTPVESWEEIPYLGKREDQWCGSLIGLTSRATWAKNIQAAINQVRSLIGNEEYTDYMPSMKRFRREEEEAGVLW
Sequence of Eukaryotic translation initiation factor 4E (P63073 whole entry): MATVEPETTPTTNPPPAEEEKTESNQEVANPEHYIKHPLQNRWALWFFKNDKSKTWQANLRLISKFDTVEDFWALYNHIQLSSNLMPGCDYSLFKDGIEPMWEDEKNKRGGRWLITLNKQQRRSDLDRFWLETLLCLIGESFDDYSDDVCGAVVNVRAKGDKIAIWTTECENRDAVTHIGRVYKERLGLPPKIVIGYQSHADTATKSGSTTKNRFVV
Sequence of Peroxisome proliferator-activated receptor gamma/Nuclear receptor coactivator 2 (P37231 whole entry): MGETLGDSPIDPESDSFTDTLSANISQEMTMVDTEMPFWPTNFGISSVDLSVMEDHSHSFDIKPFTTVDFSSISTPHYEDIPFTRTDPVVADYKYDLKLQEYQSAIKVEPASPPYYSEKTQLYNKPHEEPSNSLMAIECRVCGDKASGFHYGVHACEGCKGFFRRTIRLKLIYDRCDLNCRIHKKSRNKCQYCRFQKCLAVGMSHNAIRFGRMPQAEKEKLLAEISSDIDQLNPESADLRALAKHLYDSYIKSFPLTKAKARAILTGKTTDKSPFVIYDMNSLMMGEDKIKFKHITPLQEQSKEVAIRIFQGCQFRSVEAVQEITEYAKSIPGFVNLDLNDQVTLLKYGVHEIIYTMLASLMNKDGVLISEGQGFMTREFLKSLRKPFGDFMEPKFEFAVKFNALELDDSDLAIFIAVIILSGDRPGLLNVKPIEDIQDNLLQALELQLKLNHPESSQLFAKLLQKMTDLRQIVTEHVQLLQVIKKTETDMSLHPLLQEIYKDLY
Sequence of Peroxisome proliferator-activated receptor gamma/Nuclear receptor coactivator 2 (Q15596 whole entry, further chain): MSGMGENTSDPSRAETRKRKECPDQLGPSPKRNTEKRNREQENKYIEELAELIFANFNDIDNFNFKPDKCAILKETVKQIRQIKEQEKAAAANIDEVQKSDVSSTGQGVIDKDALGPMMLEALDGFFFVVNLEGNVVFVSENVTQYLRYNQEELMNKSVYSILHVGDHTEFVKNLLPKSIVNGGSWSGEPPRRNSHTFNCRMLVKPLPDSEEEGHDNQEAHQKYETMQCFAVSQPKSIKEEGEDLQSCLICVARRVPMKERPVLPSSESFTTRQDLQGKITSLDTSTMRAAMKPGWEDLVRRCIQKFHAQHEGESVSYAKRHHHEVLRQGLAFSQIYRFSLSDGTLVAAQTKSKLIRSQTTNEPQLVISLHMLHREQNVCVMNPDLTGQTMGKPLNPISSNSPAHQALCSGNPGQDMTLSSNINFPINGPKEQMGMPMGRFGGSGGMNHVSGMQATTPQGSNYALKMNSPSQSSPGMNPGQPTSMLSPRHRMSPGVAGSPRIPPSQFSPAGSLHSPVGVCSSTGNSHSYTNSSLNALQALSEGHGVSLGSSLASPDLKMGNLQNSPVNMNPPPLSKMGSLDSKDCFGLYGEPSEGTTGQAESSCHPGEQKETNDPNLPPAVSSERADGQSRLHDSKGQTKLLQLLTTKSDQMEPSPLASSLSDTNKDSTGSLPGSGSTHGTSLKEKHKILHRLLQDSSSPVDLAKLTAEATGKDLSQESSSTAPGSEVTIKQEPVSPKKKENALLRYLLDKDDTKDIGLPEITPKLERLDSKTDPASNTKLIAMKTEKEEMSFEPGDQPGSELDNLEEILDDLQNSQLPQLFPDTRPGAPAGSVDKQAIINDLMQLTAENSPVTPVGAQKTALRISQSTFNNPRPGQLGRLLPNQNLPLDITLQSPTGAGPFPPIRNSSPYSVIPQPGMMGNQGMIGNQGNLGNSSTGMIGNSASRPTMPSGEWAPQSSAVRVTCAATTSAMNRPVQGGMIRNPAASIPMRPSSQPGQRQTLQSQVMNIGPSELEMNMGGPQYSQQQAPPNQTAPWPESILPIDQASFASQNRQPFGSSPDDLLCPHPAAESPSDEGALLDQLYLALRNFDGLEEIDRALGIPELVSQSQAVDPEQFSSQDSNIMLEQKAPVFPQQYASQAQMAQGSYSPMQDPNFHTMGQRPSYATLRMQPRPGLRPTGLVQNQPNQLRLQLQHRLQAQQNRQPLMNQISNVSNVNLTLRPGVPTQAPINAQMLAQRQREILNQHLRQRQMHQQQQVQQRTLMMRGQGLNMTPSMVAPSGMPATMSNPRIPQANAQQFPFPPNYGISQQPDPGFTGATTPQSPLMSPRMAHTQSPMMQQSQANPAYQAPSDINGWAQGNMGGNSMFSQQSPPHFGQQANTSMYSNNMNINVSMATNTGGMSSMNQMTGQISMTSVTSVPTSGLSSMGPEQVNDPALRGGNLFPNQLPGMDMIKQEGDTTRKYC
Sequence of Phospholipase A2 (P04054 whole entry): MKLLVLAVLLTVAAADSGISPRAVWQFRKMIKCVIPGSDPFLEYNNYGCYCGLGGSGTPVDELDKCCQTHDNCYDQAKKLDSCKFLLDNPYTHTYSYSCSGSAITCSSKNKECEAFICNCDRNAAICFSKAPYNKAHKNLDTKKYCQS

For the compound `CCCOc1ccc2ccccc2c1/C=C1\SC(=O)NC1=O`, in assay [1], the AC50 was 6.89 µM (active). Further, the IC50 at Phospholipase A2 was 15.9 µM (active).

Turning to `COc1cc(/C=C2/C(=O)NC(=O)N(c3ccccc3)C2=O)ccc1O`, the IC50 at Genome polyprotein was > 100 µM (active).

Regarding `CCn1c(=O)cc(SCC(=O)N2CCOCC2)c2ccccc21`, the results for the EC50 in [2], in assay [3] and in assay [4] were > 79.4 µM (inactive), > 79.4 µM (not active) and > 79.4 µM (not active), respectively. The IC50 in assay [5] was > 80 µM (inactive).

Turning to `O=C(COc1ccccc1/C=C1/NC(=O)NC1=O)Nc1ccccc1`, the IC50 in assay [6] is 3.71 µM (active); in assay [7], 3.26 µM (active).

In the case of `CCOc1c(Br)cc(/C=C2\C(=O)N(CCC#N)N=C2C)cc1OC`, in assay [8], the AC50 was 3.43 µM (active). Also, the EC50 on Protein RecA was 1.8 µM (active). Besides, the IC50 on Genome polyprotein is > 100 µM (active).

Regarding `CC(=O)OCCCn1c(C)[n+](C)c2cc(Cl)c(Cl)cc21`, the results for the IC50 in assay [6] and in [7] were 2.27 µM (active) and 2.41 µM (active), respectively.

`CC1=CC(C)(C)[N+](C)(C)c2ccc(C)cc21`: the half-inhibitory concentration (IC50) in assay [6] was 2.06 µM (active); in assay [7], 3.44 µM (active).

In the case of `Cc1ccc(N2C(=O)NC(=O)/C(=C\c3cc(C)n(-c4ccc(C(=O)O)cc4)c3C)C2=O)cc1`, the EC50 in assay [9] was > 300 µM (not active); in assay [10] it was 6.96 µM (active). Besides, on Genome polyprotein, the IC50 is > 100 µM (active).

As to `CC(=O)OC(COC1C[C@@H]2CC[C@@]1(C)C2(C)C)C[N+]1(C)CCCCC1` (some centres undefined), the IC50 in assay [6] was 1.91 µM (active); in assay [7] it was 3.55 µM (active).

Take `COc1ccccc1-c1nnc(S)o1`: the EC50 in assay [2] is 59.1 µM (inactive); in assay [3], > 79.4 µM (not active); in assay [4] it was 11.9 µM (not active).

Turning to `O=C(O)c1cc(/C=C/C(=O)c2cc(F)ccc2O)c2c(c1)COCO2`, the IC50 at Genome polyprotein was > 100 µM (active).

`Oc1cc(-c2ccccc2)nc2ccccc12`: the IC50 in [11] is > 64 µM (inactive); in [12], > 80 µM (inactive).

As for `Sc1nnc(-c2ccco2)n1/N=C/c1ccc(Cl)cc1`, the figures for the IC50 in [11] and in [13] were > 64 µM (inactive) and 58.3 µM (active), respectively.
